How the values were obtained:
Conditions in all cases: third passage
293 cells = test: Effect of replacement compounds on the growth of 293 cells in 293 SFM without transferrin, three passages; type: cell-based, human
Description: Semi-confluent adherent cultures of 293 Cells (ATCC, CRL 1573) are readily adapted to suspension culture. The cells are first detached with a solution of Trypsin-EDTA (0.05% Trypsin, 0.53 mM Na4EDTA), and then resuspended in conventional medium supplemented with 10% FBS to inhibit the trypsin. The resuspended cells are centrifuged at 200×g for five minutes.
The initial seeding density of the 293 cells after conversion to suspension culture is 1×10^6 cells/mL. The cells are shaken on a rotary shaker at 150 rpm in a 37° C. incubator equilibrated with 8% CO2-92% air. […] Because 293 cells have a tendency to aggregate, the cells can be vortexed vigorously for approximately 45 seconds to obtain a predominantly single cell suspension at the time of passaging and counting. After several passages in suspension culture, the maximum achievable density can be determined.
For replacement compound evaluation, 293 cells were established in 125 mL shaker flasks at an initial viable seeding density of 2×10^5 cells/mL in a final volume of 20 mL. All cultures were maintained at 37° C. in humidified air containing 8% CO2. To eliminate transferrin carry-over effects, cells were subcultured at 4 day intervals for a total of three passages. At each subculturing, cells were seeded at a density of 2×10^5 cells/mL. Positive control cultures contained 5 μg/mL human holo-transferrin while negative control cultures were established in the absence of either transferrin or replacement compound. Replacement compound stocks were prepared at 0.1M-0.2M in ddH2O and solubilized when necessary using 5N NaOH or HCl. Iron complexes were established using 0.2 M replacement compound and iron stocks mixed 1:1 (v/v) and incubated for 5-10 minutes at 22° C. All solutions containing replacement compounds were filter sterilized using a 0.22 μm Millex-GV filter prior to addition to transferrin and serum-free media.
Except where noted, replacement compounds were evaluated either alone or in combination with ferric chloride or ferrous sulfate at 25 μM, 50 μM and 100 μM. When used in combination, the replacement compounds were used in equimolar concentration with iron ions. Values in Table 4 represent the mean percentage of control growth for duplicate cultures determined at the third passage.
When added to the medium formulation uncomplexed, the replacement compound is listed alone, when added as a complex with a transition metal, the source of the transition metal is listed with the replacement compound.

Sp2/0 cells = test: Effect of replacement compounds on the growth of Sp2/0 cells in CD Hybridoma medium without transferrin, three passages; type: cell-based
Description: The ability of replacement compounds to support cellular growth in the absence of transferrin was evaluated using Sp2/0 cells maintained in CD Hybridoma medium (Invitrogen Corporation, Carlsbad, Calif.).
Stock cultures containing 5 μg/mL human holo-transferrin were prepared in CD Hybridoma medium. For replacement compound evaluation, Sp2/0 cells were established at an initial viable cell density of 0.5×10^5 cells/mL in stationary culture using 75 cm^2 tissue culture flasks in a final volume of 20 mL. All cultures were maintained at 37° C. in humidified air containing 8% CO2. To eliminate transferrin carry-over effects, cells were subcultured at the same seeding density at 4 day intervals for a total of three passages. Positive control cultures contained 5 μg/mL human holo-transferrin while negative control cultures were established in the absence of either transferrin or replacement compound. Replacement compound stocks were prepared at 0.1M-0.2M in ddH2O and solubilized when necessary using 5N NaOH or HCl. Iron complexes were established using 0.2M replacement compound and iron stocks mixed 1:1 (v/v) and incubated for 5-10 minutes at 22° C. All solutions containing replacement compounds were filter sterilized using a 0.22 μm Millex-GV filter prior to addition to transferrin and serum-free media.
Except where otherwise noted, replacement compounds were evaluated either alone or in combination with ferric chloride or ferrous sulfate at 25 μM, 50 μM and 100 μM. Values in the table represent the mean percentage of control growth for duplicate cultures determined at the third passage.
When added to the medium formulation un-complexed, the replacement compound is listed alone, when added as a complex with a transition metal, the source of the transition metal is listed with the replacement compound.

CHO cells = test: Effect of replacement compounds on the growth of CHO cells in CD CHO medium without transferrin, three passages; type: cell-based, Chinese hamster
Description: The ability of replacement compounds to support cellular growth in the absence of transferrin was evaluated using CHO cells maintained in CD CHO medium (Invitrogen Corporation, Carlsbad, Calif., the formulation of which is described in WO 98/08934). Stock cultures containing 5 μg/mL human holo-transferrin were prepared in CD CHO medium. For replacement compound evaluation, CHO cells were established in 125 mL shaker flasks at an initial viable seeding density of 1×10^5 cells/mL in a final volume of 20 mL. All cultures were maintained at 37° C. in humidified air containing 8% CO2. To eliminate transferrin carry-over effects, cells were subcultured at 4 day intervals for a total of three passages. Positive control cultures contained 5 μg/mL human holo-transferrin while negative control cultures were established in the absence of either transferrin or replacement compound. Replacement compound stocks were prepared at 0.1M-0.2M in ddH2O and solubilized when necessary using 5N NaOH or HCl. Iron complexes were established using 0.2M replacement compound and iron stocks mixed 1:1 (v/v) and incubated for 5-10 minutes at 22° C. All solutions containing replacement compounds were filter sterilized using a 0.22 μm Millex-GV filter prior to addition to transferrin and serum-free media.
Except where noted, replacement compounds were evaluated either alone or in combination with ferric chloride or ferrous sulfate at 25 μM, 50 μM and 100 μM. Values in the table represent the mean percentage of control growth for duplicate cultures determined at the third passage.
The ability of various replacement compounds to substitute for transferrin in the culture of CHO cells was determined. When added to the medium formulation un-complexed, the replacement compound is listed alone, when added as a complex with a transition metal, the source of the transition metal is listed with the metal binding compound.

[1] = 100 μM, control 5 μg/mL human holo-transferrin
[2] = 25 μM, control 5 μg/mL human holo-transferrin
[3] = 25 μM, control 5 μg/mL human holo-transferrin, iron equimolar where combined
[4] = 50 μM, control 5 μg/mL human holo-transferrin

Molecule	mean percentage of control growth (293 cells; [1])	mean percentage of control growth (Sp2/0 cells; [2])	mean percentage of control growth (Sp2/0 cells; 50 μM)	mean percentage of control growth (Sp2/0 cells; 100 μM)	mean percentage of control growth (293 cells; [3])	mean percentage of control growth (293 cells; [4])	other results
2-Hydroxynicotinic Acid•Ferric Chloride	0 percentage of control growth	64 percentage of control growth	82 percentage of control growth	85 percentage of control growth	–	–	mean percentage of control growth (293 cells; 150 μM): 0 percentage of control growth; mean percentage of control growth (293 cells; 200 μM): 99 percentage of control growth
[O-][n+]1cccc(O)c1 [3-Hydroxypyridine-N-Oxide]	4 percentage of control growth	–	–	–	4 percentage of control growth	4 percentage of control growth	–
CC(=O)N[C@@H](CS)C(=O)O.[Cl][Fe]([Cl])[Cl] [N-Acetyl-Cysteine•Ferric Chloride]	52 percentage of control growth	–	–	–	88 percentage of control growth	82 percentage of control growth	–
Sorbitol•Ferrous Sulfate	83 percentage of control growth	–	–	–	58 percentage of control growth	69 percentage of control growth	–
O=C(O)c1cccc(O)c1O.[Cl][Fe]([Cl])[Cl] [2,3-Dihydrobenzoic Acid•Ferric Chloride]	–	–	–	–	–	–	mean percentage of control growth (CHO cells; [2]): 71 percentage of control growth; mean percentage of control growth (CHO cells; 50 μM): 0 percentage of control growth; mean percentage of control growth (CHO cells; 100 μM): 0 percentage of control growth
Myo-lnositol•Ferric Chloride	85 percentage of control growth	–	–	–	79 percentage of control growth	87 percentage of control growth	–
Nicotinic Acid-N-Oxide•Ferric Chloride	79 percentage of control growth	–	–	–	104 percentage of control growth	80 percentage of control growth	mean percentage of control growth (CHO cells; [2]): 60 percentage of control growth; mean percentage of control growth (CHO cells; 50 μM): 84 percentage of control growth; mean percentage of control growth (CHO cells; 100 μM): 105 percentage of control growth
[Cl][Fe]([Cl])[Cl].c1ccc(-c2ccccn2)nc1 [2,2-Dipyridyl•Ferric Chloride]	0 percentage of control growth	–	–	–	51 percentage of control growth	96 percentage of control growth	–
Cc1occc(=O)c1O.[Cl][Fe]([Cl])[Cl] [3-Hydroxy-2-Methyl-4-Pyrone•Ferric Chloride]	–	60 percentage of control growth	71 percentage of control growth	75 percentage of control growth	–	–	–
Glycine•Ferric Chloride	72 percentage of control growth	34 percentage of control growth	61 percentage of control growth	56 percentage of control growth	81 percentage of control growth	71 percentage of control growth	–
O=C(O)CN(CC(=O)O)CC(=O)O [Nitriloacetic Acid]	–	0 percentage of control growth	0 percentage of control growth	0 percentage of control growth	–	–	–
Lysine•Ferric Chloride	–	–	–	–	–	–	mean percentage of control growth (CHO cells; [2]): 51 percentage of control growth; mean percentage of control growth (CHO cells; 50 μM): 79 percentage of control growth; mean percentage of control growth (CHO cells; 100 μM): 98 percentage of control growth
O=C(O)c1ccccn1.O=S(=O)([O-])[O-].[Fe+2] [2-Pyridinecarboxylic Acid•Ferrous Sulfate]	0 percentage of control growth	–	–	–	67 percentage of control growth	48 percentage of control growth	–
Nitriloacetic Acid•Ferrous Sulfate	0 percentage of control growth	–	–	–	75 percentage of control growth	95 percentage of control growth	–
Morpholine•Ferric Chloride	–	54 percentage of control growth	64 percentage of control growth	81 percentage of control growth	–	–	–
Glutamine•Ferric Chloride	–	36 percentage of control growth	55 percentage of control growth	65 percentage of control growth	–	–	–
Acetohydroxamic Acid•Ferric Chloride	0 percentage of control growth	–	–	–	83 percentage of control growth	22 percentage of control growth	mean percentage of control growth (Sp2/0 cells; 5 μM): 40 percentage of control growth; mean percentage of control growth (Sp2/0 cells; 10 μM): 48 percentage of control growth; mean percentage of control growth (Sp2/0 cells; 20 μM): 47 percentage of control growth
Asparagine•Ferric Chloride	–	36 percentage of control growth	51 percentage of control growth	54 percentage of control growth	–	–	–
Glutamic Acid•Ferric Chloride	83 percentage of control growth	–	–	–	102 percentage of control growth	68 percentage of control growth	–
Mimosine•Ferric Chloride	80 percentage of control growth	–	–	–	64 percentage of control growth	55 percentage of control growth	–
O=[N+]([O-])c1ncccc1O.[Cl][Fe]([Cl])[Cl] [3-Hydroxy-2-Nitropyridine•Ferric Chloride]	–	52 percentage of control growth	62 percentage of control growth	72 percentage of control growth	–	–	–

— US9879243B2, “Culture medium for cell growth and transfection” (LIFE TECHNOLOGIES CORPORATION, priority 2001, dated 2018)
